# Assay results from US4696920A, “Certain 2-substituted 1,3-propylidenediphosphonate derivatives, pharmaceutical compositions containing them and their use as antihypertensive agents” (priority 1984, dated 1987).
# Entries after “also recorded” stand apart in the source; their conditions may differ.
# Assays:
# [1] = tested on: mean blood pressure in rat; experiment: Acute intravenous hypotensive activity in anesthetized rats; type: in vivo, rat (male Wistar); conditions: Rattus norvegicus, iv, read-out: Decrease in mean blood pressure (% pretest)
# Protocol: Male Wistar rats were anesthetized with Pentobarbital (Nembutal, 60 mg/kg i.p.) and heparinized (5 mg/kg i.p.). After tracheotomy the right carotid was cannulated (catheter PE 50); blood pressure was measured with a pressure transducer (Statham P 23 db) and recorded on a polygraph (Beckman).
# Animals received 0.5 and 1.5 mg/kg of the test compounds. Less than 100 μl of test compounds dissolved in 0.9% saline were injected in the jugular vein. Highly water insoluble compounds were suspended in 2% Tween-80. Injection of the vehicle alone had no detectable hypotensive effect.
# Results presented are expressed as percent decrease in initial mean blood pressure (Mean±SEM).
# [2] = tested on: rat trachea contraction induced by KCl depolarization; experiment: KCl-induced rat trachea contraction; design: species or system rat (male SHR, Okamoto-Aoki); conditions: for activity at 1 µM: Rattus norvegicus, 40 min, read-out: Contraction (% max.); for activity on KCl-induced trachea contraction (in words): final concentration 1.0 μM
# Protocol: Spontaneously hypertensive male rats (SHR) Okamoto-Aoki Strain, weighing 300-400 g were used in this study. They were killed by bleeding after Pentobarbital anesthesia (Nembutal, Abbott Co, 40 mg/kg). Their entire trachea was quickly removed and dissected free of fat and connective tissue in Krebs-Ringer solution. A strip (4 mm×40 mm), obtained by spirally cutting the trachea, was immediately suspended in a 50 ml Krebs-Ringer solution and continuously bubbled with a O2 /CO2 (95/5) mixture. Bath temperature was maintained at 37±1° C. The composition (mM) of the Krebs-Ringer solution modified by Nghiem, was as follows: NaCl, (118.0); KCl, (4.7); CaCl2, (2.5); MgCl2, (1.18); NaHCO3, (12.5); KH2 P04, (1.18); glucose, (5.5) in bidistilled water (pH 7.4). Each strip was equilibrated under initial tension (1.5-2 g) for 1-2 hours and the bath solution changed every 30 min. A contractile or relaxant response was isometrically measured with a force-displacement transducer (Ugo-Basile) and recorded on a polygraph (Beckman).
# After equilibration, KCl was added to the bath at 65 mM final concentration. This concentration produced maximum trachea contraction. Under these conditions, a plateau phase showing a tonic sustained contraction was reached within 30 minutes. Drugs were added 30 minutes after the plateau phase has been reached (final concentration=1.0 μM). […] Recordings of the residual trachea contraction were made 40 minutes after drug addition to the bathing fluid. The initial KCl induced contraction was taken as the maximum KCl response (100%). Results were expressed as % of maximal contraction. Nifedipine, Prenylamine, Flunarizine and Diltiazem were used as reference standards to validate this assay.
# All 1,3-diphosphonates and drugs were dissolved in saline (0.9% NaCl) except when water insoluble, then the compounds were dissolved in 2% ethanol. The final concentration of ethanol used has been shown not to interfere with the assay.
# Results are expressed as mean values±SEM, the Student's t-test was used for statistical analysis.
# [3] = tested on: calcium channel binding site for [^3 H]-Nitrendipine (rat brain membranes); experiment: [^3 H]-Nitrendipine binding to rat brain membranes; design: species or system rat (male Wistar); conditions: for modulation of [^3 H]-Nitrendipine binding (in words) / Specifically bound [^3 H]-Nitrendipine % of control value / Bound ^3 H at 1.0 μM / Bound ^3 H at 0.1 μM: Table 1a; for Specifically bound [^3 H]-Nitrendipine % of control value: compound concentration 1.0 μM; for Bound ^3 H at 1.0 μM / Bound ^3 H at 0.1 μM: ratio of [^3 H]-Nitrendipine bound at 1.0 and 0.1 μM compound
# Protocol: (§1) Diltiazem hydrochloride was a generous gift from Goedecke A. G.
# Suitable dilutions were made in 50 mM Tris-HCl buffer (pH 7.4) containing 150 mM NaCl and 1 mM CaCl2. The ethanol concentration in the final assay never exceeded 0.1%.
# (§2) The purity of the radioligand and of the various agents tested was monitored by thin layer chromatography on silica gel plates.
# (§3) The following procedure was adapted from Bellemann et al (Proc. Nat. Acad. Sci. 80, 2356, 1983), and Gould et al (Proc. Nat. Acad. Sci. 79, 3656, 1982).
# (§4) Adult male Wistar rats weighing 250-300 g were anesthetized with carbon dioxide prior to decapitation. The brain was removed then immersed in ice-cold 0.32M sucrose and washed 2-3 times with fresh solution. Cerebral cortex was minced and homogenized (Potter-Elvehjem homogenizer) in 10 volumes of ice-cold sucrose solution. The homogenate was centrifuged (4° C.) at 1000×g for 15 minutes. The resulting supernatant was then centrifuged at 90000×g (30 minutes) and the pellet was washed twice with 20 ml ice-cold 50 mM Tris-HCl pH 7.4.
# (§5) The final pellet was resuspended in 50 mM Tris-HCl pH 7.4/150 mM NaCl/1 mM CaCl2 to give a protein concentration of 4 mg/ml.
# (§6) The membrane suspension was kept on ice until used. Binding assays were performed in subdued light to prevent dihydropyridine breakdown. Membrane protein (400 μg/tube) was incubated in 50 mM Tris-HCl buffer (pH 7.4)/150 mM NaCl/1 mM CaCl2 with the indicated concentrations of radioligand and test compounds or known calcium antagonists, in a total volume of 2 ml. After the indicated time intervals, the reaction was terminated by rapid filtration through Whatman GF/B glass fiber filters (2.4 cm diameter) on a Millipore filter holder. The assay tube was rinsed with 2 ml ice-cold 50 mM Tris-HCl pH (7.4) and the precipitate was further washed with 2×5 ml of the same buffer.
# (§7) Filters were dried under a heat lamp and were extracted with 10 ml of liquid scintillation cocktail (Toluene/Triton X-100, 2/1 containing 4 g Omnifluor/1) prior to tritium determination at 48% counting efficiency.
# (§8) Assays were performed in duplicate or triplicate.
# (§9) Data were expressed as percent specific [^3 H]-Nitrendipine binding relative to the established control value.
# (§10) Compound activity in the [^3 H]-Nitrendipine binding assay was evaluated by using the following criteria:
# (§11) 1. [^3 H]-Nitrendipine binding at 1.0 μM compound final concentration was either below 95% or above 105% of the control value determined in absence of compound.
# 2. […] This ratio is indicative of a dose response relationship within the compound concentration range tested, when the value differs appreciably from 1.0.
# [4] = tested on: isolated rat atrium (atrium rate); experiment: Chronotropic activity in isolated rat atrium; design: species or system rat (male SHR, Okamoto-Aoki); conditions: 5.0 × 10^-6 M, mean ± SEM, read-out: Decrease in atrium rate (% pretest)
# Protocol: Spontaneously hypertensive male rats (SHR) (Okamoto-Aoki strain) were anesthetized with Pentobarbital (Nembutal Abbott, 60 mg/kg, i.p.). The hearts were quickly excised and both atria were dissected free from adjacent cardiac tissues. The atria were immediatly placed in a 50 ml Krebs-Ringer bath with the following composition (mM): NaCl, (120.0); KCl, (5.63); CaCl2, (2.0); MgCl2, (2.10); NaHCO3, (25.0); Glucose, (9.7) (pH 7.4). The solution was continuously bubbled with a O2 /CO2 mixture (95/5) and maintained at 37±1° C. The atrium was fixed to an optical displacement transducer (IITC, USA) under a resting tension of 1 g in order to measure atrial rate. The preparation was allowed to equilibrate for 40 min then cumulative dose-response curves were determined for each test compound (0.5-5 μMole/l). Maximum effect was normally obtained within 30-40 min. for each concentration.
# Stock solutions of the 1,3-diphosphonates were generally prepared in 0.9% saline and water insoluble compounds were prepared in 50% ethanol. […] When tested at the concentration of 5.0×10^-6 M a decrease in atrium rate of more than 5% was considered as significant.
# All data are presented as % decrease of initial atrium rate (mean values±SEM). A potent negative chronotropic effect was found with all compounds tested (table 3).
# [5] = tested on: [^3 H]-PN-200 110 (dihydropyridine) binding site of calcium channel, rat brain membranes; experiment: [^3 H]-PN-200 110 binding to rat brain membranes; design: species or system rat (male Wistar); conditions: for Specifically bound [^3 H]-PN-200 110 % of control value: compound concentration 1.0 μM; for Specifically bound [^3 H]-PN-200 110 % of control value / Bound ^3 H at 1.0 μM / Bound ^3 H at 0.1 μM: Table 1b; for Bound ^3 H at 1.0 μM / Bound ^3 H at 0.1 μM: ratio of [^3 H]-PN-200 110 bound at 1.0 and 0.1 μM compound; for potency in [^3 H]-PN200 110 binding (in words): text on Table 1b
# Protocol: as §1
# Water insoluble compounds were dissolved in absolute ethanol to give 10 mM or 2.5 mM stock solutions. Suitable dilutions were made in 50 mM Tris-HCl buffer (pH 7.4) containing 150 mM NaCl and 1 mM CaCl2. The ethanol concentration in the final assay never exceeded 0.1%.
# as §2, §3, §4, §5, §6, §7, §8, §9, §10, §11
# 2. The ratio obtained by dividing the amount of specifically found [^3 H]-Nitrendipine at 1.0 μM compound final concentration by the value obtained at 0.1 μM test compound, was smaller than 0.9 or greater than 1.1. This ratio is indicative of a dose response relationship within the compound concentration range tested, when the value differs appreciably from 1.0.
# Note: In some experiments [^3 H]-PN200 110, a new and commercially available specific dihydropyridine was used instead of [^3 H]-Nitrendipine.
# [6] = tested on: blood pressure in hypertensive rats; experiment: Oral hypotensive activity in hypertensive rats (tail cuff); type: in vivo, rat (spontaneously hypertensive, SHR); conditions: Table 5
# Protocol: Some selected compounds were given orally to conscious SHR rats and blood pressure was monitored using the tail cuff method. A marked and sustained hypotensive activity was measured in all treated rats. Results are given 2 hours post dose (Table 5). These studies illustrate the obvious potential use of orally administered 1,3-diphosphonates for the clinical treatment of hypertension in man.
# [7] = tested on: drug receptor sites associated with calcium channels; conditions: known calcium antagonists; cited from earlier work
Structure (SMILES),Specifically bound [^3 H]-PN-200 110 % of control value [5],Bound ^3 H at 1.0 μM / Bound ^3 H at 0.1 μM [5],oral hypotensive activity (in words) [6],potency in [^3 H]-PN200 110 binding (in words) [5],effect on [^3 H]-Nitrendipine binding (in words) [7],further results
"CC(C)OP(=O)(CC(Cc1ccccc1)CP(=O)(OC(C)C)OC(C)C)OC(C)C [Compound 55, Tetraisopropyl 2-benzyl-1,3-propylidenephosphonate]",,,,,,inhibition in vivo at 0.5 mg/kg [1]: 28.2 ± 0.7%; inhibition in vivo at 1.5 mg/kg [1]: 31.1 ± 6.4%; activity at 1 µM [2]: 73 ± 1%; activity on KCl-induced trachea contraction (in words) [2]: potent pharmacological activity; modulation of [^3 H]-Nitrendipine binding (in words) [3]: activators; Specifically bound [^3 H]-Nitrendipine % of control value [3]: 156 % of control value; Bound ^3 H at 1.0 μM / Bound ^3 H at 0.1 μM [3]: 1.292; inhibition at 5 µM [4]: 17.5 ± 4.6%
"CCCCOP(=O)(CC(CCOc1ccccc1)CP(=O)(OCCCC)OCCCC)OCCCC [Compound 79, Tetrabutyl 2-(2-phenoxyethyl)-1,3-propylidenediphosphonate]",3 % of control value,0.211,decrease blood pressure as markedly as the marketed calcium antagonists used as references,,,activity at 1 µM [2]: 60.3 ± 9.6%; activity on KCl-induced trachea contraction (in words) [2]: potent pharmacological activity; modulation of [^3 H]-Nitrendipine binding (in words) [3]: strong inhibitors; Specifically bound [^3 H]-Nitrendipine % of control value [3]: 0 % of control value; Bound ^3 H at 1.0 μM / Bound ^3 H at 0.1 μM [3]: 0.000
CCCCOP(=O)(CC(CCOc1ccc(F)cc1)CP(=O)(OCCCC)OCCCC)OCCCC [Compound 89],6 % of control value,0.310,decrease blood pressure as markedly as the marketed calcium antagonists used as references,as potent as Nifedipine,,
CCCCOP(=O)(CC(CCOc1ccc(Cl)cc1)CP(=O)(OCCCC)OCCCC)OCCCC [Compound 90],4 % of control value,0.243,decrease blood pressure as markedly as the marketed calcium antagonists used as references,as potent as Nifedipine,,
CCCCOP(=O)(CC(CCOc1ccc(Br)cc1)CP(=O)(OCCCC)OCCCC)OCCCC [Compound 91],15 % of control value,0.420,decrease blood pressure as markedly as the marketed calcium antagonists used as references,,,
CCCCOP(=O)(CC(CCOc1ccc(OC)cc1)CP(=O)(OCCCC)OCCCC)OCCCC [Compound 92],0 % of control value,0.000,decrease blood pressure as markedly as the marketed calcium antagonists used as references,as potent as Nifedipine,,
CCCCOP(=O)(CC(CCOc1cccc(C(F)(F)F)c1)CP(=O)(OCCCC)OCCCC)OCCCC [Compound 93],0 % of control value,0.000,decrease blood pressure as markedly as the marketed calcium antagonists used as references,as potent as Nifedipine,,
"CC(Cc1ccccc1)NCCC(c1ccccc1)c1ccccc1 (stereo not drawn) [Prenylamine, reference compound]",,,,,reduce [^3 H]-Nitrendipine binding affinity,% [^3 H]-Nitrendipine bound ([3]; reference standards at 1 μM): 57%
COc1ccc(CCN(C)CCCC2(c3ccc(OC)c(OC)c3)S(=O)(=O)CCCS2(=O)=O)cc1OC [Tiapamil],,,,,reduce [^3 H]-Nitrendipine binding affinity,
COc1ccc(CCN(C)CCCC(C#N)(c2ccc(OC)c(OC)c2)C(C)C)cc1OC (stereo not drawn) [Verapamil],,,,,inhibitors; also recorded: reduce [^3 H]-Nitrendipine binding affinity,
